Results taken from PubChem BioAssay AID1259407 (Chemical Carcinogenesis Research Information System (CCRIS), 2018).
Activity calls are given as the source filed them. The rule behind the calls is not given here.

System: CCRIS mutagenicity, Ames/micronucleus/aberration tests
Assay: CCRIS mutagenicity studies
[1] = Test System: AMES SALMONELLA TYPHIMURIUM, Strain/Indicator: TA100, Metabolic Activation: RAT, LIVER, S-9, PCB, Method: PREINCUBATION
[2] = Test System: AMES SALMONELLA TYPHIMURIUM, Strain/Indicator: TA100, Metabolic Activation: NONE, Method: STANDARD PLATE
[3] = Test System: AMES SALMONELLA TYPHIMURIUM, Strain/Indicator: TA100, Metabolic Activation: RAT, LIVER, S-9, AROCLOR 1254, Method: STANDARD PLATE
[4] = Test System: AMES SALMONELLA TYPHIMURIUM, Strain/Indicator: TA98, Metabolic Activation: NONE, Method: STANDARD PLATE
[5] = Test System: AMES SALMONELLA TYPHIMURIUM, Strain/Indicator: TA98, Metabolic Activation: RAT, LIVER, S-9, AROCLOR 1254, Method: STANDARD PLATE
[6] = Test System: AMES SALMONELLA TYPHIMURIUM, Strain/Indicator: TA1535, Metabolic Activation: NONE, Method: STANDARD PLATE
[7] = Test System: AMES SALMONELLA TYPHIMURIUM, Strain/Indicator: TA1535, Metabolic Activation: RAT, LIVER, S-9, AROCLOR 1254, Method: STANDARD PLATE
[8] = Test System: AMES SALMONELLA TYPHIMURIUM, Strain/Indicator: TA1537, Metabolic Activation: NONE, Method: STANDARD PLATE
[9] = Test System: AMES SALMONELLA TYPHIMURIUM, Strain/Indicator: TA1537, Metabolic Activation: RAT, LIVER, S-9, AROCLOR 1254, Method: STANDARD PLATE

Compound: CCCCCCC(=O)OCCN1CCN(CCCN2c3ccccc3Sc3ccc(C(F)(F)F)cc32)CC1
- mutagenic call (Test System: AMES SALMONELLA TYPHIMURIUM, Strain/Indicator: TA98, Metabolic Activation: NONE): inactive; negative
- mutagenic call (Test System: AMES SALMONELLA TYPHIMURIUM, Strain/Indicator: TA98, Metabolic Activation: RAT, LIVER, S-9, PHENOBARBITAL AND 5,6-BENZOFLAVONE): inactive; negative
- mutagenic call (Test System: AMES SALMONELLA TYPHIMURIUM, Strain/Indicator: TA100, Metabolic Activation: NONE): inactive; negative
- mutagenic call (Test System: AMES SALMONELLA TYPHIMURIUM, Strain/Indicator: TA100, Metabolic Activation: RAT, LIVER, S-9, PHENOBARBITAL AND 5,6 BENZOFLAVONE): inactive; negative
- mutagenic call (Test System: AMES SALMONELLA TYPHIMURIUM, Strain/Indicator: TA1535, Metabolic Activation: NONE): inactive; negative
- mutagenic call (Test System: AMES SALMONELLA TYPHIMURIUM, Strain/Indicator: TA1535, Metabolic Activation: RAT, LIVER, S-9, PHENOBARBITAL AND 5,6-BENZOFLAVONE): inactive; negative
- mutagenic call (Test System: AMES SALMONELLA TYPHIMURIUM, Strain/Indicator: TA1537, Metabolic Activation: NONE): inactive; negative
- mutagenic call (Test System: AMES SALMONELLA TYPHIMURIUM, Strain/Indicator: TA1537, Metabolic Activation: RAT, LIVER, S-9, PHENOBARBITAL AND 5,6-BENZOFLAVONE): inactive; negative
- mutagenic call (Test System: E. COLI, Strain/Indicator: WP2 UVRA, Metabolic Activation: NONE): inactive; negative
- mutagenic call (Test System: E. COLI, Strain/Indicator: WP2 UVRA, Metabolic Activation: RAT, LIVER, S-9, PHENOBARBITAL AND 5,6 BENZOFLAVONE): inactive; negative

Compound: Cc1ccc(C)c(NO)c1
- mutagenic call (Test System: AMES SALMONELLA TYPHIMURIUM, Strain/Indicator: TA100, Metabolic Activation: NONE, Method: PREINCUBATION): active; positive
- mutagenic call [1]: active; positive

Compound: O=CN(O)c1ccc(Oc2c(Cl)cc(Cl)cc2Cl)cc1
- mutagenic call [2]: inactive; negative
- mutagenic call (Test System: AMES SALMONELLA TYPHIMURIUM, Strain/Indicator: TA100, Metabolic Activation: RAT, LIVER, S-9, KANECLOR 500, Method: STANDARD PLATE): active; positive

Compound: Cl/C=C(\Cl)COCCCl
- mutagenic call (Test System: AMES SALMONELLA TYPHIMURIUM, Strain/Indicator: TA100, Metabolic Activation: RAT, LIVER, S-9, 3-METHYLCHOLANTHRENE, Method: STANDARD PLATE): inactive; negative
- mutagenic call [3]: active; positive
- mutagenic call (Test System: AMES SALMONELLA TYPHIMURIUM, Strain/Indicator: TA100, Metabolic Activation: RAT, LIVER, S-9, PHENOBARBITAL, Method: STANDARD PLATE): active; positive
- mutagenic call (Test System: AMES SALMONELLA TYPHIMURIUM, Strain/Indicator: TA100, Metabolic Activation: RAT, LIVER, S-9, Method: STANDARD PLATE): inactive; negative

Compound: C[C@]12CCC=C(C=O)[C@@]1(C=O)C2
- mutagenic call [4]: active; positive
- mutagenic call [2]: active; positive

Compound: O.O.O.O.O.O.O.[Cl-].[Cl-].[Cl-].[Fe+3]
- mutagenic call (Test System: AMES SALMONELLA TYPHIMURIUM, Strain/Indicator: TA102, Metabolic Activation: NONE, Method: STANDARD PLATE): inactive; negative
- mutagenic call (Test System: Mouse lymphoma, Strain/Indicator: L5178Y (tk+/tk-), Metabolic Activation: None, Method: Suspension/plate): inactive; negative
- mutagenic call (Test System: Mouse lymphoma, Strain/Indicator: L5178Y (tk+/tk-), Metabolic Activation: Rat, Liver, S-9, Aroclor 1254, Method: Suspension/plate): inactive; inconclusive (previous evaluation: negative)

Compound: Cc1ccc(N=Nc2ccc(N(CCO)CCO)cc2)cc1
- mutagenic call (Test System: AMES SALMONELLA TYPHIMURIUM, Strain/Indicator: TA98, Metabolic Activation: HAMSTER, LIVER, S-9, AROCLOR 1254, Method: STANDARD PLATE): inactive; negative
- mutagenic call [4]: inactive; negative
- mutagenic call (Test System: AMES SALMONELLA TYPHIMURIUM, Strain/Indicator: TA98, Metabolic Activation: RAT, LIVER, S-9, AROCLOR 1254, Method: PREINCUBATION): inactive; negative
- mutagenic call [5]: inactive; negative
- mutagenic call [2]: inactive; negative
- mutagenic call [3]: inactive; negative
- mutagenic call [6]: inactive; negative
- mutagenic call [7]: inactive; negative
- mutagenic call [8]: inactive; negative
- mutagenic call [9]: inactive; negative
- mutagenic call (Test System: AMES SALMONELLA TYPHIMURIUM, Strain/Indicator: TA1538, Metabolic Activation: NONE, Method: STANDARD PLATE): inactive; negative
- mutagenic call (Test System: AMES SALMONELLA TYPHIMURIUM, Strain/Indicator: TA1538, Metabolic Activation: RAT, LIVER, S-9, AROCLOR 1254, Method: STANDARD PLATE): inactive; negative

Compound: CN(C(=O)CCl)c1snc2ccccc12
- mutagenic call [4]: inactive; negative
- mutagenic call (Test System: AMES SALMONELLA TYPHIMURIUM, Strain/Indicator: TA98, Metabolic Activation: S-9, Method: STANDARD PLATE): inactive; negative
- mutagenic call [2]: inactive; negative
- mutagenic call (Test System: AMES SALMONELLA TYPHIMURIUM, Strain/Indicator: TA100, Metabolic Activation: S-9, Method: STANDARD PLATE): inactive; negative
- mutagenic call [6]: inactive; negative
- mutagenic call (Test System: AMES SALMONELLA TYPHIMURIUM, Strain/Indicator: TA1535, Metabolic Activation: S-9, Method: STANDARD PLATE): inactive; negative
- mutagenic call [8]: inactive; negative
- mutagenic call (Test System: AMES SALMONELLA TYPHIMURIUM, Strain/Indicator: TA1537, Metabolic Activation: S-9, Method: STANDARD PLATE): inactive; negative

Compound: Cc1ccc(S(=O)(=O)n2ncc(Cl)c(Cl)c2=O)cc1
- mutagenic call [4]: inactive; negative
- mutagenic call [5]: inactive; negative
- mutagenic call [2]: inactive; negative
- mutagenic call [3]: inactive; negative
- mutagenic call [6]: inactive; negative
- mutagenic call [7]: inactive; negative
- mutagenic call [8]: inactive; negative
- mutagenic call [9]: inactive; negative

Compound: CC(C)[C@@](O)(C(=O)OCC1=CCN2CC[C@@H](O)[C@@H]12)[C@H](C)O
- mutagenic call (Test System: AMES SALMONELLA TYPHIMURIUM, Strain/Indicator: TA100, Metabolic Activation: HAMSTER, LIVER, S-9, PCB, Method: PREINCUBATION): inactive; negative
- mutagenic call [1]: inactive; negative

Compound: Cc1c[nH]c(=O)[nH]c1=O
- mutagenic call (Test System: CHINESE HAMSTER V-79, Strain/Indicator: V-79 (HPRT)/6-THIOGUANINE, Metabolic Activation: NONE, Method: STANDARD PLATE): inactive; negative

Compound: CC(=O)N(O)c1ccccc1C
- mutagenic call [4]: inactive; negative
- mutagenic call [5]: active; positive
- mutagenic call [2]: inactive; negative
- mutagenic call [3]: inactive; negative

Compound: O=[N+]([O-])c1ccc2c([N+](=O)[O-])cc3ccccc3c2c1
- mutagenic call (Test System: AMES SALMONELLA TYPHIMURIUM, Strain/Indicator: TA98(1,8-DNP6), Metabolic Activation: NONE, Method: STANDARD PLATE): active; positive
- mutagenic call (Test System: AMES SALMONELLA TYPHIMURIUM, Strain/Indicator: TA98(NR), Metabolic Activation: NONE, Method: STANDARD PLATE): active; positive
- mutagenic call [4]: active; positive
- mutagenic call [2]: active; positive
- mutagenic call (Test System: AMES SALMONELLA TYPHIMURIUM, Strain/Indicator: YG1021, Metabolic Activation: NONE, Method: STANDARD PLATE): active; positive
- mutagenic call (Test System: AMES SALMONELLA TYPHIMURIUM, Strain/Indicator: YG1024, Metabolic Activation: NONE, Method: STANDARD PLATE): active; positive
- mutagenic call (Test System: AMES SALMONELLA TYPHIMURIUM, Strain/Indicator: YG1026, Metabolic Activation: NONE, Method: STANDARD PLATE): active; positive
- mutagenic call (Test System: AMES SALMONELLA TYPHIMURIUM, Strain/Indicator: YG1029, Metabolic Activation: NONE, Method: STANDARD PLATE): active; positive
